Experimental data: PubChem BioAssay AID1645866 (Buhrlage Lab, Dana-Farber Cancer Institute and Novartis …, 2021)
Activity calls are given as the source filed them.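 Rule for the calls: active = in confirmatory dose-response testing, peak deubiquitinase inhibition of 30% or more; inactive = the rest.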

Molecular target: Ubiquitin carboxyl-terminal hydrolase 28 (Homo sapiens) (UniProt Q96RU2)
Assay: Concentration-response biochemical assay confirming initial hits as inhibitors of ubiquitin-specific protease 28 (AID 1645866)
Details: purified USP28, ubiquitin-rhodamine fluorescence, 30 min

Chain of Ubiquitin carboxyl-terminal hydrolase 28 (Homo sapiens) (Q96RU2 whole entry, looked up): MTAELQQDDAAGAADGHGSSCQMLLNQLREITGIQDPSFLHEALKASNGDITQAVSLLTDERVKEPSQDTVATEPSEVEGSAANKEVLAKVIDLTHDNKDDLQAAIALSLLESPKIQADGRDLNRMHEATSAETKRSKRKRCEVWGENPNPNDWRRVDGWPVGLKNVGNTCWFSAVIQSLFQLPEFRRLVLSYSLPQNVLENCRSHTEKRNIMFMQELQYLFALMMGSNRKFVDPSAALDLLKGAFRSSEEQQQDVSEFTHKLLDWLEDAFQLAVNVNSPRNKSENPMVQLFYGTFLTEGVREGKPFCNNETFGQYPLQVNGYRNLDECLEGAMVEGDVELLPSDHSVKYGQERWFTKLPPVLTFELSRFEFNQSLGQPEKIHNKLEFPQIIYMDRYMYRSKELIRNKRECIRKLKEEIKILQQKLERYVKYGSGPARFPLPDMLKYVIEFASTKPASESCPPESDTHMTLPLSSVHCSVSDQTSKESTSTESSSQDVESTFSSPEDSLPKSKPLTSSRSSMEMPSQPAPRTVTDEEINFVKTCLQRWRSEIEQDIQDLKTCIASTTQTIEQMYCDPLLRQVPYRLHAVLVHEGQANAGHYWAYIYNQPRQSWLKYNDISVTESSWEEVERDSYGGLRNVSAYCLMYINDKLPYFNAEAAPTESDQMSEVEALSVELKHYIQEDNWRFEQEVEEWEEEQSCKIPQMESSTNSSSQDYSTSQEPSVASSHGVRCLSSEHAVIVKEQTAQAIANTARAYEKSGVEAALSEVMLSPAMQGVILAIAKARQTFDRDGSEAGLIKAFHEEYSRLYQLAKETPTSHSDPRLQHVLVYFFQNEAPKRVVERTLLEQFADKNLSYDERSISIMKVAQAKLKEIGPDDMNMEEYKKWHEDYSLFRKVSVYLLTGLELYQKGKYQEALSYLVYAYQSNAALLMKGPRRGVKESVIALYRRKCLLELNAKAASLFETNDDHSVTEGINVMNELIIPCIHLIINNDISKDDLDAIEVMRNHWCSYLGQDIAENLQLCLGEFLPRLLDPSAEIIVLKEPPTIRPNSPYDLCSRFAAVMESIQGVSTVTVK

| SMILES | IC50 |
| --- | --- |
| O=C(NCc1nc2ccccc2[nH]1)c1cccc(S(=O)(=O)N2CCc3ccccc32)c1 | 31.4 µM |
| CCOC(=O)c1ccc(NC(=O)c2cnc(N3CCOCC3)nc2)cc1 | > 50 µM (inactive) |
| CC(C)Cn1cc(OC(=O)c2ccc(F)cc2)c2c1nc(-c1ccc(F)cc1)n1c3ccccc3nc21 | > 50 µM (inactive) |
| CC(=O)c1ccc(NC(=O)C2CCN(c3cncnc3N3CCCC3)CC2)cc1 | 0.674 µM |
| Cn1c(CCNC(=O)c2[nH]nc3c2CCc2ccccc2-3)nc2ccccc21 | 23.7 µM |
| COc1cc(O)c2c(=O)c(-c3ccc(O)cc3)coc2c1 | 36.1 µM |
| COc1ccc(Cn2cnc3c([nH]c4ccc(Br)cc43)c2=O)cc1 | 1.72 µM |
| Cc1ccc(CSC2=NS(=O)(=O)c3ccccc3N2)cc1 | 16.2 µM |
| Cc1ccc(C(=O)CCC(=O)OCC(=O)c2ccc3[nH]c(=O)[nH]c3c2)cc1 | 24.1 µM |
| Cc1cnnn1-c1ccc(C(=O)Nc2ccc(Cl)cc2)cc1 | 20.3 µM |
| O=C(Nc1ccncc1)c1ncoc1-c1cccc(Cl)c1 | 32.3 µM |
| NC(=O)c1nnn(-c2ccc(NC(=O)c3ccc(F)c(F)c3)cc2)n1 | 11.2 µM |
| CCOC(=O)c1cccc(NC(=O)Nc2cccn3nc(C)nc23)c1 | 0.766 µM |
| CC12c3ccc4c(c3C(=O)c3occ(c31)C(=O)CC2O)CCC4=O (stereo not given) | > 50 µM (inactive) |
| CCn1c(SCC(=O)c2c(N)n(CC(C)C)c(=O)n(C)c2=O)nnc1-c1ccccc1 | 13.9 µM |
| Cc1ccc(Cn2cc(-c3noc(-c4ccncc4)n3)nn2)cc1 | 36.9 µM |
| COc1ccccc1CNC(=O)CCCCn1c(=O)c2ccccc2n(Cc2ccccc2C#N)c1=O | 13 µM |
| O=C1Nc2ccccc2C(=O)C1C(c1ccc(Cl)cc1)C1C(=O)Nc2ccccc2C1=O (stereo not given) | 28.6 µM |

| SMILES | IC50 |
| --- | --- |
| CCn1cnc2c(-c3ccccc3)cn(CC(=O)NCc3ccc4c(c3)OCO4)c2c1=O | 10.4 µM |
| CCc1nc(-c2cccc(NC(=O)c3ccc(C#N)cc3F)c2)no1 | 36.2 µM |
| COc1ccc(OC)c(NC(=O)C2=C(C)Nc3ncnn3C2c2ccccc2OCc2ccc(C)cc2)c1 (stereo not given) | 19.9 µM |
| COc1ccc(-c2nc(-c3nnn(Cc4ccc(F)cc4)c3C)no2)c(OC)c1 | 5.4 µM |
| C=C(NC(=O)C(=C)NC(=O)c1csc(C2=N[C@@H]3c4csc(n4)[C@H]4NC(=O)c5csc(n5)[C@H]([C@](C)(O)[C@@H](C)O)NC(=O)[C@H]5CSC(=N5)/C(=C/C)NC(=O)C([C@@H](C)O)NC(=O)c5csc(n5)C3(CC2)NC(=O)[C@H](C)NC(=O)C(=C)NC(=O)[C@H](C)NC(=O)C([C@@H](C)CC)N[C@@H]2C=Cc3c(C(C)O)cc(nc3[C@H]2O)C(=O)OC4C)n1)C(N)=O (stereo not given in full) | > 50 µM (inactive) |
| CC(C)=CCC/C(C)=C/Cc1c(O)cc2c(c1O)C(=O)OC2 | 2.33 µM |
| COc1ccc(C2CC(=O)Nc3n[nH]c(-c4ccccc4)c32)cc1OC (stereo not given) | 33.7 µM |
| CC(C)(C)n1ncc2c(=O)n(Cc3cccc([N+](=O)[O-])c3)cnc21 | 6.69 µM |
| CCC(=O)OCc1cnc(C)c2oc(=O)c(-c3nc(-c4ccccc4)no3)cc12 | > 50 µM (inactive) |
| Cc1ccc(CNC(=O)c2cccc(N3C(=O)N4CCc5c([nH]c6ccccc56)[C@@]4(C)C3=O)c2)cc1 | 44 µM |
| O=C(COc1ccc2oc3c(c2c1)CCCC3)Nc1ccccn1 | 24.9 µM |
| O=C(CSc1ccc(-c2cccc([N+](=O)[O-])c2)nn1)Nc1cccc(F)c1 | 2.23 µM |
| O=C(Nc1ccccc1-c1nc2ccccc2[nH]1)c1sc2ccccc2c1Cl | 2.04 µM |
| COc1ccccc1-c1nc2c3c(ncn2n1)Oc1c(c(C)nn1-c1ccccc1)C3c1cccnc1 (stereo not given) | 40.9 µM |
| COc1ccccc1Nc1ncc(C(=O)NCCc2ccc(Cl)cc2)c2ccccc12 | 4.31 µM |
| CCc1ccc(NC(=O)Cc2nnc(-c3ccc4ncccc4c3)o2)cc1 | 25.9 µM |
| O=C(Nc1ccc(Cl)cc1F)c1cc(-c2ccccn2)n[nH]1 | 1.7 µM |

Further lines, results first:

| IC50 | SMILES |
| --- | --- |
| 4.28 µM | Cc1sc2ccn(C)c(=O)c2c1C(=O)NC1CCCC1 |
| 28.1 µM | COc1ccc(NC(=O)CC(=O)c2ccc([N+](=O)[O-])cc2)cc1S(=O)(=O)Nc1ccc(Br)cc1 |
| 20.3 µM | COc1cc(NC(=O)c2cc(CN3CCOCC3)on2)cc(OC)c1 |
| 19.1 µM | CC(=O)Nc1ccc(S(=O)(=O)N2CCCC(C(=O)Nc3cccc4ccccc34)C2)cc1 (stereo not given) |
| 35.1 µM | COc1ccc(-c2cc3nc([C@@H](C)NC(=O)c4ccc5c(c4)OCO5)nn3cn2)cc1 |
| 41.1 µM | CC1=C(c2ccc(F)cc2)S(=O)(=O)NC1=NCC(=O)Nc1ccc(F)cc1F |
| 29.9 µM | COCCCn1c(C(=O)Nc2ccccc2OC)cc2c(=O)n3ccccc3nc21 |
| 2.6 µM | COc1cccc(NC(=O)C2CCC(CNS(=O)(=O)c3ccc4c(c3)C(C)(C)C(=O)N4C)CC2)c1 (stereo not given) |
| 16.2 µM | O=C(Nc1ccc2c(c1)OCCO2)C1CCN(C(=O)c2cc(-c3cccnc3)n[nH]2)CC1 |
| > 50 µM (inactive) | Cc1cccc(C(=O)NCc2nc3ccccc3n2Cc2ccccc2C)c1 |
| > 50 µM (inactive) | Cc1cc(C(=O)N2CCN(C3CCN(Cc4ccc(Cl)o4)CC3)C(=O)C2)c(C)o1 |
| > 50 µM (inactive) | Cc1cc(C)nc(SCCn2c(N3CCC(Cc4ccccc4)CC3)nc3c2c(=O)n(C)c(=O)n3C)n1 |
| 9.08 µM | O=C(COC(=O)c1ccc(Cl)cc1)Nc1ccc2[nH]c(=O)[nH]c2c1 |
| 40.4 µM | O=C(NCc1ccc(Cl)cc1)Nc1cccc2ccccc12 |
| 1.89 µM | Cc1cc(O)c2c3c(c(O)cc2c1)C(=O)c1c(O)cccc1C3=O |
| 12.1 µM | COc1ccc(/C=C/C(=O)Nc2c3c(nc4c2CCC4)CCCC3)cc1 |
| 1.69 µM | Cc1ccc(-n2nc(C(=O)Nc3ccc(C)cn3)c3ncn(C)c(=O)c32)cc1 |
| 16.5 µM | Cc1cccc(NC(=O)CSc2ccc(-n3cnc(-c4ccccc4)c3)nn2)c1 |

| IC50 | SMILES |
| --- | --- |
| 20.8 µM | COc1ccc(NC(=O)Cn2c(CSc3ccc(C)cc3)nc3ccccc32)cc1 |
| > 50 µM (inactive) | COc1ccc(CCNC(=O)c2c(N)n(-c3cccc(Cl)c3)c3nc4ccccc4nc23)cc1 |
| 2.12 µM | COc1ccc(-c2nc(Cn3nnc(C(=O)Nc4ccc(C)c(C)c4)c3N)c(C)o2)cc1 |
| > 50 µM (inactive) | CC1CCN(c2nc(F)c3c(c2F)S(=O)(=O)CCN3Cc2cccnc2)CC1 |
| 48.7 µM | CC1=C(c2ccc(F)cc2)S(=O)(=O)NC1=NCC(=O)Nc1cccc(F)c1 |
| 2.01 µM | Cc1cc(C)cc(-n2cnc3cc(C(=O)NCCC4=CCCCC4)ccc32)c1 |
| 3.77 µM | COc1cc(C(=O)NC(Cc2ccccc2)c2nc3ccccc3[nH]2)cc(OC)c1OC (stereo not given) |
| 14.1 µM | COc1ccc(CCN2COc3c(cc(Cl)c4cccnc34)C2)cc1OC |
| > 50 µM (inactive) | Cc1ccc2c(Nc3ccc(CC(=O)O)cc3)c(C(=O)N3CCCC3)cnc2n1 |
| > 50 µM (inactive) | CC(=O)Nc1ccc([C@H]2OCC(=O)N(C3CCOCC3)[C@@H]2CO)cc1 |
| 6.53 µM | O=C(O)c1ccc(C2Cc3c([nH]c(=O)[nH]c3=O)O2)cc1 (stereo not given) |
| 17.1 µM | Cc1ccc(O)c(-c2cc(C(=O)Nc3ccccc3Cl)[nH]n2)c1 |
| > 50 µM (inactive) | COc1cc(OC)c2c(c1)C(=O)C1=C(COC(C)(O)C1)C2=O (stereo not given) |
| > 50 µM (inactive) | O=c1c(OC2O[C@H](CO)[C@H](O)[C@H](O)[C@H]2O)c(-c2ccc(O)cc2)oc2cc(O)cc(O)c12 (stereo not given in full) |
| 2.91 µM | CCc1nc2c(NC(=O)Nc3cccc(C(=O)OC)c3)cccn2n1 |
| 33.1 µM | O=C(c1ccc(Cl)cc1)c1c[nH]cc1-c1c(F)cccc1Cl |
| 2.43 µM | Cn1c(COc2ccccc2)nnc1SCC(=O)Nc1ccc(N2CCOCC2)cc1 |
